Assay results published in patent publication US20080125424A1, “Derivatives of urea and related diamines, methods for their manufacture, and uses therefor” (priority 2006, published 2008).

Target: T1, human parathyroid cell Ca2+ receptor (hPCaR) (Homo sapiens, UniProt P41180)
T1 construct: expressed in transfected cells
T1 sequence (P41180 20-1078): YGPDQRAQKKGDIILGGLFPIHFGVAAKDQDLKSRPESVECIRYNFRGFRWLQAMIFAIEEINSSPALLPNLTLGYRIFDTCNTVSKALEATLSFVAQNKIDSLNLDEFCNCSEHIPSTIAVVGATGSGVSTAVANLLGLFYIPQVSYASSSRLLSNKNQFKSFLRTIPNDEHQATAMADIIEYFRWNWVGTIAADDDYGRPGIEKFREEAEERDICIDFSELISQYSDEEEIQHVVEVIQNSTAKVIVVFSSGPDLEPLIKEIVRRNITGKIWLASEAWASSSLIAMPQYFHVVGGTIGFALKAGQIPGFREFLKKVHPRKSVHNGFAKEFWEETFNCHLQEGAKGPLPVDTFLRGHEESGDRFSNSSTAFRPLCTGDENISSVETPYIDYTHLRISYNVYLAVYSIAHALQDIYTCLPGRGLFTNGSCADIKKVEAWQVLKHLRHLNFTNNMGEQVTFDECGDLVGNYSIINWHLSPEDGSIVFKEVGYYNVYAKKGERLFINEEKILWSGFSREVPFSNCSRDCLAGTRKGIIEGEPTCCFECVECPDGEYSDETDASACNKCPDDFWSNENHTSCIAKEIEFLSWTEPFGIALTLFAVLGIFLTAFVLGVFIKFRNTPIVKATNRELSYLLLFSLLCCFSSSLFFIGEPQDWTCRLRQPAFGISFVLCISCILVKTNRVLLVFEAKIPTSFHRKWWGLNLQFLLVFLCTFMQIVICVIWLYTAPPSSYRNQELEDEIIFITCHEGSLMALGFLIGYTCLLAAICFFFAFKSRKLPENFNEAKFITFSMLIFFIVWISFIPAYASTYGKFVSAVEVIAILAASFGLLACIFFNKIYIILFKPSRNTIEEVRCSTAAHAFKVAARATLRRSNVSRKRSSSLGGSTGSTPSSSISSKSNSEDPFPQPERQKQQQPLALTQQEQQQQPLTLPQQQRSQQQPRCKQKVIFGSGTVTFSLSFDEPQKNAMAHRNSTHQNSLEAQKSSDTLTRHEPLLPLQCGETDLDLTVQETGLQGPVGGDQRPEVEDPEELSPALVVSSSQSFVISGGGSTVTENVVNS
Assay: [Ca2+]i fluorescence assay in HEK 293 4.0-7 cells expressing hPCaR
Format: cell-based
Conditions: buffer with 1 mM CaCl2
Experimental: The activities of the compounds of the present invention on calcium receptors were measured. In one embodiment, the measurement was performed in accordance with the method described in Example 4 of Nemeth et al., PCT/US95/13704 (International Publication No. WO96/12697) herein incorporated by reference.
A 4.0-kb NotI-HindIII fragment of the human parathyroid cell Ca^2+ receptor (hPCaR) cDNA was subcloned into the mammalian expression vector pCEP4 (Invitrogen) containing the hygromycin-resistant gene as a selectable marker. This plasmid was transfected into HEK 293 cells by calcium phosphate precipitation. Transfected cells were grown in Dulbecco's modified Eagle's medium containing 10% fetal bovine serum and hygromycin (200 μg/mL). Hygromycin-resistant colonies were subcloned and assayed for hPCaR mRNA by solution hybridization using a ^32P-labeled RNA probe complementary to the (4.0 kb) hPCaR sequence (Garrett, et al., J. Biol. Chem. 270, 12919-12925 (1995)). Clone 7 was used to assess the effects of compounds on [Ca^2+]i. This stably transfected cell line was termed HEK 293 4.0-7. For measurements of [Ca^2+]i, the cells were recovered from tissue culture flasks by brief treatment with Versene (Invitrogen; Containing 0.2 g/L EDTA.4Na in phosphate-buffered saline) and then seeded in collagen coated 384-well plates (BD Biosciences) at 20K cells per well in the growth media (same as above). Cells were grown in 37c TC incubator overnight. Then, the media was discarded and cells were loaded with 1× dye from Ca^2+ Assay Kit I (BD Biosciences) in parathyroid cell buffer (126 mM NaCl, 4 mM KCl, 1 mM MgSO4, 0.7 mM K2HPO4/KH2PO4, 20 mM HEPES.NaOH (pH 7.45)) containing 0.5% BSA and 1 mM CaCl2. Cells were loaded at room temperature for 90 minutes. Each test compound was added to the cells and the fluorescence was recorded by using excitation and emission wavelengths of 485 and 530 nm, respectively.

Structure (SMILES) | EC50
C[C@@H]1CN(C(=O)CCCN(CCC(c2ccccc2)c2ccccc2)C(=O)Nc2nc(-c3ccccc3)cs2)CCN1 [Example 99, (R)-1-(3,3-diphenylpropyl)-1-(4-(3-methylpiperazin-1-yl)-4-oxobutyl)-3-(4-phenylthiazol-2-yl)urea] | 100 to 1000 nM
CS(=O)(=O)Nc1ccc(-c2csc(NC(=O)N(CCC(=O)O)CCC(c3ccccc3)c3ccccc3)n2)cc1 [Example 113, 3-(1-(3,3-diphenylpropyl)-3-(4-(4-(methylsulfonamido)phenyl)thiazol-2-yl)ureido)propanoic acid] | 100 to 1000 nM
CN(C)C(=O)CCN(CCC(c1ccccc1)c1ccccc1)C(=O)Nc1nc2ccccc2s1 [Example 107, 3-(benzo[d]thiazol-2-yl)-1-(3-(dimethylamino)-3-oxopropyl)-1-(3,3-diphenylpropyl)urea] | 100 to 1000 nM
CC(C)N1CCN(C(=O)CCCN(CCC(c2ccccc2)c2ccccc2)C(=O)Nc2nc3ccccc3s2)CC1 [Example 118, 3-(benzo[d]thiazol-2-yl)-1-(3,3-diphenylpropyl)-1-(4-(4-isopropylpiperazin-1-yl)-4-oxobutyl)urea] | 100 to 1000 nM
O=C(O)CCN(CCC(c1ccccc1)c1ccccc1)C(=O)Nc1nc(-c2ccccc2)c(Cl)s1 [Example 121, 3-(3-(5-chloro-4-phenylthiazol-2-yl)-1-(3,3-diphenylpropyl)ureido)propanoic acid] | 1000 to 5000 nM
O=C1CC[C@@H](NCCN(CCC(c2ccccc2)c2ccccc2)C(=O)Nc2nc3ccccc3s2)CN1 [Example 144, (R)-3-(benzo[d]thiazol-2-yl)-1-(3,3-diphenylpropyl)-1-(2-(6-oxopiperidin-3-ylamino)ethyl)urea] | < 100 nM
O=C(CCCN(CCC(c1ccccc1)c1ccccc1)C(=O)Nc1nc2ccccc2s1)N1CCNCC1 [Example 82, 3-(benzo[d]thiazol-2-yl)-1-(3,3-diphenylpropyl)-1-(4-oxo-4-(piperazin-1-yl)butyl)urea] | < 100 nM
O=C(O)CN1CCC(NCCN(CCC(c2ccccc2)c2ccccc2)C(=O)Nc2nc3ccccc3s2)CC1 [Example 162, (4-{2-[3-Benzothiazol-2-yl-1-(3,3-diphenyl-propyl)-ureido]-ethylamino}-piperidin-1-yl)acetic acid] | < 100 nM
NC(=O)CCCN(CCC(c1ccccc1)c1ccccc1)C(=O)Nc1nc2ccccc2s1 [Example 80, 1-(4-amino-4-oxobutyl)-3-(benzo[d]thiazol-2-yl)-1-(3,3-diphenylpropyl)urea] | < 100 nM
O=C(O)CCN(CCC(c1ccccc1)c1ccccc1)C(=O)Nc1nc2ccccc2s1 [Example 114, 3-(3-(benzo[d]thiazol-2-yl)-1-(3,3-diphenylpropyl)ureido)propanoic acid] | 100 to 1000 nM
O=C(NCCN(CCC(c1ccccc1)c1ccccc1)C(=O)Nc1nc2ccccc2s1)C1CCNCC1 [Example 166, Piperidine-4-carboxylic acid {2-[3-benzothiazol-2-yl-1-(3,3-diphenyl-propyl)-ureido]-ethyl}-amide] | < 100 nM
CCOC(=O)C1CC1CNCCN(CCC(c1ccccc1)c1ccccc1)C(=O)Nc1nc2ccccc2s1 (centres unmarked) [Example 152, 2-({2-[3-Benzothiazol-2-yl-1-(3,3-diphenyl-propyl)-ureido]-ethylamino}-methyl)cyclopropanecarboxylic acid ethyl ester] | 1000 to 5000 nM
O=C(CCN(CCC(c1ccccc1)c1ccccc1)C(=O)Nc1nc2ccccc2s1)N1CCNCC1 [Example 106, 3-(benzo[d]thiazol-2-yl)-1-(3,3-diphenylpropyl)-1-(3-oxo-3-(piperazin-1-yl)propyl)urea] | 100 to 1000 nM
O=C(NCCCCN(CCC(c1ccccc1)c1ccccc1)C(=O)Nc1nc2ccccc2s1)C1CCCCN1 (centres unmarked) [Example 128, 3-(benzo[d]thiazol-2-yl)-1-(3,3-diphenylpropyl)-1-(4-(piperidine-2-carboxamido)butyl)urea] | < 100 nM
CC(=O)N1CCN(C(=O)CCCN(CCC(c2ccccc2)c2ccccc2)C(=O)Nc2nc(-c3ccccc3)cs2)CC1 [Example 84, 1-(4-(4-acetylpiperazin-1-yl)-4-oxobutyl)-1-(3,3-diphenylpropyl)-3-(4-phenylthiazol-2-yl)urea] | < 100 nM
O=C(CCCN(CCC(c1ccccc1)c1ccccc1)C(=O)Nc1nc2ccccc2s1)NC1CCNCC1 [Example 75, 3-(benzo[d]thiazol-2-yl)-1-(3,3-diphenylpropyl)-1-(4-oxo-4-(piperidin-4-ylamino)butyl)urea] | < 100 nM
CN(CCN(CCC(c1ccccc1)c1ccccc1)C(=O)Nc1nc(-c2ccccc2)cs1)C1CCCCC1 [Example 164, 1-[2-(Cyclohexyl-methyl-amino)-ethyl]-1-(3,3-diphenyl-propyl)-3-(4-phenyl-thiazol-2-yl)-urea] | 100 to 1000 nM
O=C(Nc1nc2ccccc2s1)N(CCNC1CCNCC1)CCC(c1ccccc1)c1ccccc1 [Example 143, 3-(benzo[d]thiazol-2-yl)-1-(3,3-diphenylpropyl)-1-(2-(piperidin-4-ylamino)ethyl)urea] | < 100 nM
O=C(Nc1nc2ccccc2s1)N(CCNC1CCSCC1)CCC(c1ccccc1)c1ccccc1 [Example 155, 3-Benzothiazol-2-yl-1-(3,3-diphenyl-propyl)-1-[2-(tetrahydro-thiopyran-4-ylamino)ethyl]-urea] | 1000 to 5000 nM
O=C(O)CCN(CCC(c1ccccc1)c1ccccc1)C(=O)Nc1nc(-c2ccccc2)cs1 [Example 126, 3-(1-(3,3-diphenylpropyl)-3-(4-phenylthiazol-2-yl)ureido)propanoic acid] | 1000 to 5000 nM
CS(=O)(=O)Nc1ccc(-c2nc(NC(=O)N(CCCC(=O)O)CCC(c3ccccc3)c3ccccc3)sc2Cl)cc1 [Example 73, 4-(3-(5-chloro-4-(4-(methylsulfonamido)phenyl)thiazol-2-yl)-1-(3,3-diphenylpropyl)ureido)butanoic acid] | < 100 nM
CN(C)S(=O)(=O)NCCN(CCC(c1ccccc1)c1ccccc1)C(=O)Nc1nc2ccccc2s1 [Example 174, N,N-dimethylamino-sulfonyl-{2-[3-benzothiazol-2-yl-1-(3,3-diphenyl-propyl)-ureido]-ethyl}-amide] | 100 to 1000 nM
O=C(CCCN(CCC(c1ccccc1)c1ccccc1)C(=O)Nc1nc(-c2ccccc2)cs1)N[C@H]1CCCNC1 [Example 78, (S)-1-(3,3-diphenylpropyl)-1-(4-oxo-4-(piperidin-3-ylamino)butyl)-3-(4-phenylthiazol-2-yl)urea] | < 100 nM
CC1OCCC1NCCN(CCC(c1ccccc1)c1ccccc1)C(=O)Nc1nc2ccccc2s1 (centres unmarked) [Example 157, 3-Benzothiazol-2-yl-1-(3,3-diphenyl-propyl)-1-[2-(2-methyl-tetrahydro-furan-3-ylamino)-ethyl]-urea] | < 100 nM
O=C(CCN(CCC(c1ccccc1)c1ccccc1)C(=O)Nc1nc(-c2ccccc2)cs1)N[C@H]1CCCNC1 [Example 93, (S)-1-(3,3-diphenylpropyl)-1-(3-oxo-3-(piperidin-3-ylamino)propyl)-3-(4-phenylthiazol-2-yl)urea] | 100 to 1000 nM
O=C(CCCN(CCC(c1ccccc1)c1ccccc1)C(=O)Nc1nc(-c2ccccc2)cs1)N[C@@H]1CCCNC1 [Example 76, (R)-1-(3,3-diphenylpropyl)-1-(4-oxo-4-(piperidin-3-ylamino)butyl)-3-(4-phenylthiazol-2-yl)urea] | < 100 nM
